Here are results for three compounds from publication PMC6133092, “Synthesis of 2-alkylthio-N-(quinazolin-2-yl)benzenesulfonamide derivatives: anticancer activity, QSAR studies, and metabolic stability” (Monatshefte Fur Chemie, 2018).

One data set relates to MCF-7. As to the kind of experiment: NCI-60 single dose screen, MCF-7. It is filed as cell-based. As to conditions: Homo sapiens, MCF7; Breast cancer; single concentration 10^−5 M; read-out: IGP (inhibition growth percent) MCF-7. In outline:
(§1)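 Single dose, 10 μM; NCI DTP 60-line human tumour panel; growth inhibition read-out.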

The test system of the next data set is SR. Description: NCI-60 single dose screen, SR. Type of data set: cell-based. To be noted: Homo sapiens, Leukemia, single concentration 10^−5 M, read-out: IGP (inhibition growth percent) SR. In short, it runs like this:
as §1

In another data set the test system is EKVX. As to the kind of experiment: NCI-60 single dose screen, EKVX. It is filed as cell-based. As to conditions: Homo sapiens, NSCLC, single concentration 10^−5 M, read-out: IGP (inhibition growth percent) EKVX. In outline:
as §1

The next data set concerns UO-31. As to the kind of experiment: NCI-60 single dose screen, UO-31. Type of data set: cell-based. To be noted: Homo sapiens, Renal cancer, single concentration 10^−5 M, read-out: IGP (inhibition growth percent) UO-31. In short, it runs like this:
as §1

For another data set, the system named is HCT-116, HeLa, MCF-7. As to the kind of experiment: MTT assays, mean over three tested cell lines. It is filed as cell-based. As to conditions: Homo sapiens, mean of HCT-116, HeLa, read-out: mean IC50 against three tested cell lines. The protocol:
All of the newly synthesized compounds 9–24 were evaluated for their effects on cell viability in three human cancer cell lines: HCT-116 (colon cancer), HeLa (cervical cancer), and MCF-7 (breast cancer). Cisplatin was used as reference drug. […] Considering the activity of derivatives 9–12, 15, 17, 18, and 21–24, it can be noticed that phenyl group as R^3 bring an increase of cytotoxicity in comparison with methyl in place of R^3. However, this impact seems to be the most important for compounds with the bulky group in R^1 and generally, it is less for a set of derivatives with methyl group substituted in R^1 (9–12).
Cell viability was determined using the MTT (3-(4,5-dimethylthiazol-2-yl)-2,5-diphenyltetrazolium bromide) assay. Cells were seeded in 96-well plates at a density of 5 × 10^3 cells/well and treated for 72 h with the examined compounds in the concentration range 1–100 μM (1, 10, 25, 50, and 100 μM). Following treatment, MTT (0.5 mg/cm^3) was added to the medium and cells were further incubated for 2 h at 37 °C. Cells were lysed with DMSO and the absorbance of the formazan solution was measured at 550 nm with a plate reader (Victor, 1420 multilabel counter). […] The experiment was performed in triplicate. Values are expressed as the mean ± SD of at least three independent experiments.

A further data set has as its system MCF-7 (breast cancer). Description: MTT cell viability assay, MCF-7. It is filed as cell-based, human. To be noted: Homo sapiens, MCF7, 72 h, mean ± SD. A general note: Tetrazolium dyes change colour on reduction, which living cells bring about.
The next data set concerns RPMI-8226. Description: NCI-60 single dose screen, RPMI-8226. It is filed as cell-based. As to conditions: Homo sapiens, RPMI-8226, Leukemia; single concentration 10^−5 M; read-out: IGP (inhibition growth percent) RPMI-8226. In short, it runs like this:
as §1

The next data set concerns HeLa (cervical cancer). Description: MTT cell viability assay, HeLa. It is filed as cell-based. As to conditions: Homo sapiens.
Another data set relates to HCT-116. Description: NCI-60 single dose screen, HCT-116. Type of data set: cell-based. As to conditions: Homo sapiens, Colon cancer, single concentration 10^−5 M, read-out: IGP (inhibition growth percent) HCT-116. In short, it runs like this: as §1
The nature of data set [1]: Metabolic stability in human liver microsomes with NADPH. Type of data set: in vitro ADME. As to conditions: pooled human liver microsomes, pH 7.4, human liver microsomes 0.5 mg/cm^3, NADPH 1 mM, 10 μM compound, 37 °C, read-out: in vitro metabolic half-life t1/2.
Where [2] appears, read: Table 4, repeats Table 1 values without SD and unit.

On to `O=C(Nc1ccccc1)c1cc(S(=O)(=O)Nc2nc(-c3ccccc3)c3ccccc3n2)c(SCc2ccccc2)cc1Cl` [Compound 18, 2-Benzylthio-4-chloro-5-phenylcarbamoyl-N-(4-phenylquinazolin-2-yl)benzenesulfonamide], for which the inhibition at 10 µM is 14% in the data set on MCF-7; 28% with SR; 35% in the data set with EKVX; 3% with UO-31; ~50% with RPMI-8226; 31% in the data set with HCT-116. In addition, the IC50 with HCT-116, HeLa, MCF-7 is 44.7 µM; with MCF-7 (breast cancer) it was 46 ± 1 µM; with HeLa (cervical cancer) (MTT, 72 h, mean ± SD), 46 ± 2 µM; in the data set on HeLa (cervical cancer) (setting [2]), 46 µM. Moreover, the half-life at 10 μM in data set [1] was determined as 11.2 min.
On to `O=C(Nc1ccc(Cl)cc1)c1cc(S(=O)(=O)Nc2nc(-c3ccccc3)c3ccccc3n2)c(SCc2ccccc2)cc1Cl` [Compound 22, 2-Benzylthio-4-chloro-5-(4-chlorophenylcarbamoyl)-N-(4-phenylquinazolin-2-yl)benzenesulfonamide], for which the inhibition at 10 µM in the data set on MCF-7 was 20%; in the data set on SR, 40%; in the data set with EKVX, 28%; with UO-31, 35%; with RPMI-8226 it was ~50%; with HCT-116, 39%. The IC50 in the data set with HCT-116, HeLa, MCF-7 came out at 44.7 µM; in the data set with MCF-7 (breast cancer) it was 53 ± 1 µM; in the data set with HeLa (cervical cancer) (MTT, 72 h, mean ± SD) it was 42 ± 0.5 µM; with HeLa (cervical cancer) (setting [2]), 42 µM. The half-life at 10 μM in data set [1] came to 67.2 min.
Regarding `Cc1ccc(NC(=O)c2cc(S(=O)(=O)Nc3nc(-c4ccccc4)c4ccccc4n3)c(SCc3ccccc3)cc2Cl)cc1` [Compound 24, 2-Benzylthio-4-chloro-5-(4-methylphenylcarbamoyl)-N-(4-phenylquinazolin-2-yl)benzenesulfonamide], the inhibition at 10 µM with MCF-7 was 23%; with SR, 23%; with EKVX it was 45%; in the data set with UO-31, 25%; in the data set with RPMI-8226, ~50%; in the data set on HCT-116, 44%. Moreover, the IC50 is 45.7 µM in the data set on HCT-116, HeLa, MCF-7; 52 ± 3 µM in the data set with MCF-7 (breast cancer); 44 ± 3 µM in the data set on HeLa (cervical cancer) (MTT, 72 h, mean ± SD). In addition, in [1], the half-life at 10 μM stood at 42.3 min.

By inhibition is commonly meant how much of the control response was suppressed. What is called IC50 is the point on the concentration scale where inhibition reaches its midpoint.
